Assay results from patent publication US20230391817A1, “5ALPHA-HYDROXY-6BETA-[2-(1-H-IMIDAZOL-4-YL)-ETHYLAMINO]-CHOLESTAN-3BETA-OL ANALOGUES AND PHARMACEUTICAL COMPOSITIONS COMPRISING SAME FOR USE IN THE TREATMENT OF CANCER” (priority 2020, published 2023).
Like-named read-outs stand apart in the source and are kept apart here.

How the values were obtained:
[1] = test system: murine 4T1 mammary tumor cells; test: Cell viability of 4T1 cells, MTT; type: cell-based; conditions: for IC50: Mus musculus, 4T1, MTT, 48 h
Description: Cell viability tests were performed on murine 4T1 mammary tumor cells characterized as triple negative (HER2-, ER-, PR-).
For this experiment, a cell culture medium was prepared. The culture medium consisted of Dulbecco's Modified Eagle Medium (DMEM, sold by Westburg as LO BE12-604F), comprising 4.5 g/L glucose with L-glutamine, to which 10% fetal calf serum (FCS) and 50 U/ml penicillin/streptomycin are added. The 4T1 cells were introduced into this culture medium.
96-well plates were seeded with 2000 4T1 cells per well. After 72 hours (h) of culture under normal condition, i.e. in an incubator at 37° C. at […], the 4T1 cells were treated for 48 h with DX101, DX103, DX111, DX123, DX125, DX127 and DX129 at 100 nM, 1 μM, 2.5 μM and 10 μM. A control condition (CTL) is also performed in parallel using the previously described protocol without treatment with the molecules DX101, DX103, DX111, DX123, DX125, DX127 or DX129.
The cell viability is measured by three different methods. For the first method, MTT labeling is performed at 48 hours. This test is based on the use of the tetrazolium salt MTT (3-(4,5-dimethylthiazol-2-yl)-2,5-diphenyltetrazolium bromide). Tetrazolium is reduced by mitochondrial succinate dehydrogenase in active live cells to formazan, a purple colored precipitate. The amount of precipitate formed is proportional to the amount of live cells but also to the metabolic activity of each cell. Thus, a simple determination of the optical density at 550 nm by spectroscopy makes it possible to determine the relative amount of live and metabolically active cells. After 48 hours, the medium is aspirated, and the cells are incubated with MTT (0.5 mg/ml in culture medium) for about 3 hours. The MTT solution is aspirated and the purple crystals are dissolved in dimethyl sulfoxide (DMSO). The OD (optical density) is measured at 550 nm. The percentage of viability is then determined in each well against the CTL and the IC50 (concentration at which 50% of cells remain alive) is determined for each molecule with the Prism software using a nonlinear regression curve (log(inhibitor) vs. Response).

MCF-7 breast tumor cells = test: cells; type: cell-based; conditions: for cell viability in MTT compared with the control: 1, 2.5 or 5 μM, 48 h; for viability at 5 µM: Homo sapiens, MCF7, 48 h, read-out: percentage of cell viability relative to the control group
Description: A cell viability test was performed on MCF-7 (Michigan Cancer Foundation-7) breast tumor cells […] (ER(+) cells).
The MCF-7 cells are in a cell culture medium identical to that of Example 5 and are seeded in 12-well plates at 50 000 cells per well. 24 hours after seeding, the cells are treated with vehicle solvate comprising water and ethanol with a 1% o ratio of ethanol, 3β-fluoro-5α-hydroxy-6β-[2-(1H-imidazol-4-yl)ethylamino]cholestane, and 5α-hydroxy-6β-[2-(1H-imidazol-4-yl)ethylamino]cholestan-3β-ol at 1, 2.5 or 5 μM. The cells are observed under an inverted microscope and photographed via the microscope camera at 24 h and 48 h. The morphological changes in the cells at 1 μM are very small. […] The effects are more marked at 2.5 μM and 5 μM with an increase in the number of dead cells. […] After 24 h of treatment with 3β-fluoro-5α-hydroxy-6β-[2-(1H-imidazol-4-yl)ethylamino]-cholestane at 5 μM, 99% of the observed cells are supernatant, reflecting cell death, and 1% of the cells are adherent and show white vesicles. […] The cytostatic effect is illustrated by an inhibition of cell proliferation.
The cell viability is measured by labeling with MTT at 48 hours. This test is based on the use of the tetrazolium salt MTT (3-(4,5-dimethylthiazol-2-yl)-2,5-diphenyltetrazolium bromide). Tetrazolium is reduced by mitochondrial succinate dehydrogenase in active living cells to formazan, a purple colored precipitate. The amount of precipitate formed is proportional to the amount of living cells but also to the metabolic activity of each cell. Thus, a simple determination of the optical density at 540 nm by spectroscopy makes it possible to determine the relative amount of living and metabolically active cells. After 48 hours, the medium is aspirated, and the cells are washed with phosphate-buffered saline (PBS) and then incubated with MTT (0.5 mg/ml in PBS) for about 2 hours. The MTT solution is aspirated and the purple crystals are dissolved in dimethyl sulfoxide (DMSO). The OD (optical density) is measured at 540 nm.
The control group is prepared in a similar manner to the groups studied without the addition of the molecules studied in the present text. […] For a concentration of 5 μM, the viability is close to 0%. This reflects the ability of the compound of formula (I) to kill mammary tumor cells.

[2] = log of IC50 in μM, read-out: Mean LogIC50 (±SEM) (converted)

Row | Compound | IC50 [1, 2] [µM] | IC50 ([1]; read-out: IC50) [µM] | cell viability in MTT compared with the control (MCF-7 breast tumor cells) | viability at 5 µM (MCF-7 breast tumor cells) [%] | cytotoxic activity compared with DX101 ([1]; 4T1, Tables 1a, 1b and 1c (MTT, LDH, Green Cytotoxicity Assay))
1 | CC(C)CCC[C@@H](C)[C@H]1CC[C@H]2[C@@H]3C[C@@H](NCCc4c[nH]cn4)[C@@]4(O)C[C@@H](O)CC[C@]4(C)[C@H]3CC[C@]12C [DX101, 5α-hydroxy-6β-[2-(1H-imidazol-4-yl)ethylamino]cholestan-3β-ol, reference compound] | 4.37 | 4.4 | dose-dependent decrease | ~0 | –
2 | CC(C)CCC[C@@H](C)[C@H]1CC[C@H]2[C@@H]3C[C@@H](NCCc4c[nH]cn4)[C@@]4(O)C[C@@H](F)CC[C@]4(C)[C@H]3CC[C@]12C [DX111, 3β-fluoro-5α-hydroxy-6β-[2-(1H-imidazol-4-yl)ethylamino]cholestane] | 1.7 | 1.69 | dose-dependent decrease | ~0 | higher
